According to patent US8501752B2, “Methods for treating cancer and other pathological proliferating disorders by inhibiting mitosis using pyrrolo[2,3-d]pyrimidines” (Duquesne University of the Holy Ghost, priority 2005, dated 2013):

Assays:
MALME-3M = experiment: NCI IVCLSP growth inhibition (SRB), MALME-3M; assay type: cell-based, human; settings: 48 h drug incubation
Experimental: (§1) FIG. 1 presents nine compounds that were tested using the National Cancer Institute (NCI) 60 human tumor cell lines. The cells lines, which represent leukemia, melanoma, and cancers of the lung, colon, brain, ovary, breast, prostate, and kidney, are listed in Table 1.
(§2) Compounds 1-9 were tested according to the NCI Developmental Therapeutics Program (DTP) In Vitro Cell Line Screening Project (IVCLSP). […] Methodology for testing under the IVCLSP is as follows: The human tumor cell lines of the cancer screening panel are grown in RPMI 1640 medium containing 5% fetal bovine serum and 2 mM L-glutamine. […]
(§3) Following drug addition, the plates are incubated for an additional 48 h at 37° C., 5% CO2, 95% air, and 100% relative humidity. […] Bound stain is subsequently solubilized with 10 mM trizma base, and the absorbance is read on an automated plate reader at a wavelength of 515 nm. […] Using the seven absorbance measurements [time zero, (Tz), control growth, (C), and test growth in the presence of drug at the five concentration levels (Ti)], the percentage growth is calculated at each of the drug concentrations levels. Percentage growth inhibition is calculated as: [(Ti−Tz)/(C−Tz)]×100 for concentrations for which Ti>/=Tz [(Ti−Tz)/Tz]×100 for concentrations for which Ti<Tz.
(§4) Three dose response parameters are calculated for each experimental agent. […]

MDA-MB-435 = experiment: NCI IVCLSP growth inhibition (SRB), MDA-MB-435; assay type: cell-based, human; settings: 48 h drug incubation
Experimental: as §1, §2, §3, §4

SW-620 = experiment: NCI IVCLSP growth inhibition (SRB), SW-620; assay type: cell-based, human; settings: 48 h drug incubation
Experimental: as §1, §2, §3, §4

[1] = system: A-10 rat smooth muscle cells; experiment: Microtubule structure, indirect immunofluorescence, A-10 cells; assay type: cell-based; settings: 24 hours; 625 nM TAXOL, 167 nM vinblastine, 900 nM Compound 1
Experimental: Because of the morphological effects of Compound 1 on cultured cells and the NCI COMPARE analysis results described above, the effects of vinblastine, TAXOL (paclitaxel), and Compound 1 on microtubule structure were examined. For these studies, A-10 rat smooth muscle cells were used since they grow as flat monolayers that are amenable to imaging. The A-10 cells were treated for 24 hours with EtOH (control), 625 nM TAXOL (paclitaxel), 167 nM vinblastine, and 900 nM of Compound 1. Microtubules were then visualized by indirect immunofluoresence staining with B-tubulin antibodies. FIGS. 2a-d present representative fields for the control, TAXOL (paclitaxel), vinblastine, and Compound 1 (“149”), respectively. None of these compounds affected the morphology of stress fibers composed of microfilaments.

EKVX = experiment: NCI IVCLSP growth inhibition (SRB), EKVX; assay type: cell-based, human; settings: 48 h drug incubation
Experimental: as §1, §2, §3, §4

SK-MEL-28 = experiment: NCI IVCLSP growth inhibition (SRB), SK-MEL-28; assay type: cell-based, human; settings: 48 h drug incubation
Experimental: as §1, §2, §3, §4

[2] = system: T24, MCF-7, NCI/ADR, MCF-7/VP; experiment: Cytotoxicity, panel of human tumor cell lines of Table 3 (text summaries)
Source text: These cell lines are resistant to anticancer drugs due to overexpression of the transport proteins P-glycoprotein or MRP1.

NCI-H460 = experiment: NCI IVCLSP growth inhibition (SRB), NCI-H460; assay type: cell-based, human; settings: 48 h drug incubation
Experimental: as §1, §2, §3, §4

MCF7 = experiment: NCI IVCLSP growth inhibition (SRB), MCF7; assay type: cell-based, human; settings: 48 h drug incubation
Experimental: as §1, §2, §3, §4

HOP-92 = experiment: NCI IVCLSP growth inhibition (SRB), HOP-92; assay type: cell-based, human; settings: 48 h drug incubation
Experimental: as §1, §2, §3, §4

COc1cc(CCc2cn(Cc3ccccc3)c3nc(N)nc(C)c23)cc(OC)c1OC [Compound 1]
GI50 (MALME-3M): 283 nM
GI50 (MDA-MB-435): 10.1 nM
GI50 (SW-620): 236 nM
effect on microtubule structure (in words) [1]: caused dose-dependent losses of microtubules
GI50 (EKVX): 424 nM
GI50 (SK-MEL-28): > 1000 nM
cytotoxic potency, better than Compound 4 (2-OMe) [2]: 10 fold
effect of P-glycoprotein / MRP1 overexpression on cell sensitivity (in words) [2]: neither P-glycoprotein nor MRP1 affect cell sensitivity
cytotoxic potency (in words) ([2]; all tested cell lines): Submicromolar cytotoxic potency
GI50 (NCI-H460): 162 nM
GI50 (MCF7): 118 nM
GI50 (HOP-92): 467 nM
